Where a name gives a salt, the structure may show the parent alone.
target: T1, human recombinant Dipeptidyl peptidase IV enzyme (hrDPP IV) (Homo sapiens, UniProt P27487); assay: DPP IV assay, cleavage of H-Gly-Pro-AMC by human recombinant DPP-IV enzyme; assay type: biochemical; conditions: not given
T1 construct: purchased R&D systems
Description: DPP IV activity was determined by the cleavage rate of 7-amino 4-methylcoumarin (AMC) from the substrate H-Gly-Pro-AMC. In brief, the assay was conducted by adding 3 ng of human recombinant Dipeptidyl peptidase IV enzyme (hrDPP IV, available commercially from R&D systems) in 70 μL of the assay buffer (25 mM HEPES, 140 mM NaCl and 1% BSA, pH 7.8) to a 96 well black flat bottom microtitre plate. Test compounds were added as 10 μL additions to all wells except blank and total activity wells. After incubation of test substance with enzyme for 60 minutes at room temperature, 10 μL of 100 μM substrate H-Gly-Pro-AMC was added. After mixing, the plate was left for 20 minutes at room temperature. Then the reaction was terminated by addition of 10 μL of 25% glacial acetic acid. Fluorescence was measured using Spectra Max Gemini XS (Molecular Devices, USA) at an excitation filter of 360 nm and emission filter of 460 nm.
Test compounds dissolved in DMSO were diluted with assay buffer at different concentrations and tested in duplicates. Percentage inhibition was calculated with respect to total activity. IC50 value was calculated using Prism Software.

T1 sequence (P27487 whole entry): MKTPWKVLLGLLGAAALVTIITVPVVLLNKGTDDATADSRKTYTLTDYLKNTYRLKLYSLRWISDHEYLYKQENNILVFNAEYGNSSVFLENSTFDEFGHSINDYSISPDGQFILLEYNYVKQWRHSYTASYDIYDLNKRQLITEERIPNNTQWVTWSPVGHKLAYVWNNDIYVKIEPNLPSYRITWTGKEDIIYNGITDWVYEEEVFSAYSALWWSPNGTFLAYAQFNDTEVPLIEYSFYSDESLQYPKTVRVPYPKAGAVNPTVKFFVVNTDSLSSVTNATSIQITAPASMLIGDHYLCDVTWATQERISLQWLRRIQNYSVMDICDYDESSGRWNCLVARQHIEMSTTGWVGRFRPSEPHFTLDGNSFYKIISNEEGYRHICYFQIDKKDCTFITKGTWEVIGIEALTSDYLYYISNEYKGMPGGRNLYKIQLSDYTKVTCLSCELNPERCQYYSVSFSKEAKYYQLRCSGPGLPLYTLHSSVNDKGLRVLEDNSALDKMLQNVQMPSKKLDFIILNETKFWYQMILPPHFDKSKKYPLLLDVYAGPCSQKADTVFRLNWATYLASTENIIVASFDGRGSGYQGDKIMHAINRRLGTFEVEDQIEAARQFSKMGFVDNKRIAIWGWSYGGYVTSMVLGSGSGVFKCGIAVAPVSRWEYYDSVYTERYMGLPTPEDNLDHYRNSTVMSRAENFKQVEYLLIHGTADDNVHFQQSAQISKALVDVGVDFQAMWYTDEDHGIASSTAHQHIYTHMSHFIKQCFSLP

| SMILES | IC50 [nM] |
| --- | --- |
| CC1(C)[C@H](Cn2cncn2)CC[C@]1(C)NCC(=O)N1CCC[C@H]1C#N [Example 6, (S)-1-(2-((1S,3R)-3-((1H-1,2,4-Triazol-1-yl)methyl)-1,2,2-trimethylcyclopentylamino)acetyl)pyrrolidine-2-carbonitrile] | 123 |
| CC1(C)[C@H](Cn2cncn2)CC[C@]1(C)NCC(=O)N1CCC[C@H]1C#N [Example 7, (S)-1-(2-((1S,3R)-3-((1H-1,2,4-Triazol-1-yl)methyl)-1,2,2-trimethylcyclopentylamino)acetyl)pyrrolidine-2-carbonitrile methanesulfonate] | 99.8 |
| CC1(C)[C@@H](Cn2cncn2)CC[C@@]1(C)NCC(=O)N1CCC[C@H]1C#N [Example 8, (S)-1-(2-((1R,3S)-3-((1H-1,2,4-Triazol-1-yl)methyl)-1,2,2-trimethyleyclopentylamino)acetyl)pyrrolidine-2-carbonitrile] | 1170 ± 0.14 |
| CC1(C)[C@@H](Cn2cncn2)CC[C@@]1(C)NCC(=O)N1CCC[C@H]1C#N [Example 9, (S)-1-(2-((1R,3S)-3-((1H-1,2,4-Triazol-1-yl)methyl)-1,2,2-trimethylcyclopentylamino)acetyl)pyrrolidine-2-carbonitrilemethanesulfonate] | 781 ± 91.6 |
| CC1(C)[C@@H](CNS(=O)(=O)c2ccc(F)cc2)CC[C@@]1(C)NCC(=O)N1C[C@@H](F)C[C@H]1C#N [Example 19, N-(((1S,3R)-3-(2-((2S,4S)-2-Cyano-4-fluoropyrrolidin-1-yl)-2-oxoethylamino)-2,2,3-trimethylcyclopentyl)methyl)-4-fluorobenzenesulfonamide] | 304.8 ± 2.1 |
| CC1(C)[C@@H](CNc2ccc(C#N)cn2)CC[C@@]1(C)NCC(=O)N1C[C@@H](F)C[C@H]1C#N [Example 24, 6-(((1S,3R)-3-(2-((2S,4S)-2-Cyano-4-fluoropyrrolidin-1-yl)-2-oxoethylamino)-2,2,3-trimethylcyclopentyl)methylamino)nicotinonitrile] | 134 |
| CC1(C)[C@H](CNc2ccc(C#N)cn2)CC[C@]1(C)NCC(=O)N1C[C@@H](F)C[C@H]1C#N [Example 25, 6-(((1R,3S)-3-(2-((2S,4S)-2-Cyano-4-fluoropyrrolidin-1-yl)-2-oxoethylamino)-2,2,3-trimethylcyclopentyl)methylamino)nicotinonitrile] | 29.4 |

Results, then the compound that gave them:

| IC50 [nM] | SMILES |
| --- | --- |
| 222 ± 56.8 | CC1(C)[C@@H](Cn2cncn2)CC[C@@]1(C)NCC(=O)N1C[C@@H](F)C[C@H]1C#N [Example 1, (2S,4S)-1-(2-((1R,3S)-3-((1H-1,2,4-Triazol-1-yl)methyl)-1,2,2-trimethylcyclopentylamino)acetyl)-4-fluoropyrrolidine-2-carbonitrile] |
| 232 | CC1(C)[C@@H](Cn2ccnn2)CC[C@@]1(C)NCC(=O)N1C[C@@H](F)C[C@H]1C#N [Example 11, (2S,4S)-1-(2-((1R,3S)-3-((1H-1,2,3-Triazol-1-yl)methyl)-1,2,2-trimethylcyclopentylamino)acetyl)-4-fluoropyrrolidine-2-carbonitrile] |
| 27.8 | CC1(C)[C@H](Cn2ccnn2)CC[C@]1(C)NCC(=O)N1C[C@@H](F)C[C@H]1C#N [Example 13, (2S,4S)-1-(2-((1S,3R)-3-((1H-1,2,3-Triazol-1-yl)methyl)-1,2,2-trimethylcyclopentylamino)acetyl)-4-fluoropyrrolidine-2-carbonitrilemethane sulfonate] |
| 264 | CC1(C)[C@@H](Cn2cnnn2)CC[C@@]1(C)NCC(=O)N1C[C@@H](F)C[C@H]1C#N [Example 31, (2S,4S)-1-(2-((1R,3S)-3-((1H-Tetrazol-1-yl)methyl)-1,2,2-trimethylcyclopentylamino)acetyl)-4-fluoropyrrolidine-2-carbonitrile methanesulfonate] |
| 250 | CC1(C)[C@@H](CN2CCOCC2)CC[C@@]1(C)NCC(=O)N1C[C@@H](F)C[C@H]1C#N [Example 33, (2S,4S)-4-Fluoro-1-(2-((1R,3S)-1,2,2-trimethyl-3-(morpholinomethyl)cyclopentylamino)acetyl)pyrrolidine-2-carbonitrile] |

same assay, conditions: 300 nM compound concentration

| SMILES | inhibition at 0.3 µM [%] |
| --- | --- |
| CC1(C)[C@@H](CNS(C)(=O)=O)CC[C@@]1(C)NCC(=O)N1C[C@@H](F)C[C@H]1C#N [Example 17, N-(((1S,3R)-3-(2-((2S,4S)-2-Cyano-4-fluoropyrrolidin-1-yl)-2-oxoethylamino)-2,2,3-trimethylcyclopentyl)methyl)methanesulfonamide] | 46.6 |
| CN1C[C@]2(C)CC[C@](NCC(=O)N3CCC[C@H]3C#N)(C1)C2(C)C [Example 78, (S)-1-(2-((1R,5R)-3,5,8,8-Tetramethyl-3-azabicyclo[3.2.1]octan-1-ylamino)acetyl)pyrrolidine-2-carbonitrile] | 23.3 |
| CC1(C)[C@@]2(C)CC[C@]1(NCC(=O)N1CCC[C@H]1C#N)COC2 [Example 80, (S)-1-(2-((1R,5R)-5,8,8-Trimethyl-3-oxabicyclo[3.2.1]octan-1-ylamino)acetyl)pyrrolidine-2-carbonitrile] | 2.28 |
| CC1(C)[C@@]2(C)CC[C@]1(NCC(=O)N1C[C@@H](F)C[C@H]1C#N)COC2 [Example 81, (2S,4S)-4-Fluoro-1-(2-((1R,5R)-5,8,8-trimethyl-3-oxabicyclo[3.2.1]octan-1-ylamino)acetyl)pyrrolidine-2-carbonitrile] | 21.3 |
| CC1(C)[C@]2(C)CC[C@@]1(NCC(=O)N1C[C@@H](F)C[C@H]1C#N)COC2 [Example 82, (2S,4S)-4-Fluoro-1-(2-((1S,5S)-5,8,8-trimethyl-3-oxabicyclo[3.2.1]octan-1-ylamino)acetyl)pyrrolidine-2-carbonitrile] | 22.4 |

Second part, the compound after the results:

| inhibition at 0.3 µM [%] | SMILES |
| --- | --- |
| 73.2 | CC1(C)[C@@H](C(=O)N2CCCCC2)CC[C@@]1(C)NCC(=O)N1C[C@@H](F)C[C@H]1C#N [Example 14, (2S,4S)-4-Fluoro-1-(2-((1R,3S)-1,2,2-trimethyl-3-(piperidine-1-carbonyl)cyclopentylamino)acetyl)pyrrolidine-2-carbonitrile] |
| 84.7 | CC1(C)[C@H](CN2CCCCC2)CC[C@]1(C)NCC(=O)N1C[C@@H](F)C[C@H]1C#N [Example 40, (2S,4S)-4-Fluoro-1-(2-((1S,3R)-1,2,2-trimethyl-3-(piperidin-1-ylmethyl)cyclopentylamino)acetyl)pyrrolidine-2-carbonitrile] |
| 26.1 | CC1(C)[C@@H](CN2CCC(O)CC2)CC[C@@]1(C)NCC(=O)N1C[C@@H](F)C[C@H]1C#N [Example 41, (2S,4S)-4-Fluoro-1-(2-((1R,3S)-3-((4-hydroxypiperidin-1-yl)methyl)1,2,2-trimethylcyclopentylamino)acetyl)pyrrolidine-2-carbonitrile] |
| 56.5 | CC1(C)[C@@H](CC#N)CC[C@@]1(C)NCC(=O)N1C[C@@H](F)C[C@H]1C#N [Example 53, (2S,4S)-1-(2-((1R,3R)-3-(Cyanomethyl)-1,2,2-trimethylcyclopentylamino)acetyl)-4-fluoropyrrolidine-2-carbonitrile] |

tested on: not given; assay: not given; conditions: not given

| SMILES | melting point [°C] |
| --- | --- |
| CC1(C)[C@@H](Cn2cncn2)CC[C@@]1(C)NCC(=O)N1CCC[C@H]1C#N (as salt: methanesulfonate) [Example 9, (S)-1-(2-((1R,3S)-3-((1H-1,2,4-Triazol-1-yl)methyl)-1,2,2-trimethylcyclopentylamino)acetyl)pyrrolidine-2-carbonitrilemethanesulfonate] | 150 to 155 |
| CC1(C)[C@@H](NCC(=O)N2CCC[C@H]2C#N)CC[C@@]1(C)c1nc(-c2ccc(F)cc2)no1 (as salt: methanesulfonate) [Example 66, (S)-1-(2-((1S,3R)-3-(3-(4-Fluorophenyl)-1,2,4-oxadiazol-5-yl)-2,2,3-trimethylcyclopentylamino)acetyl)pyrrolidine-2-carbonitrile methanesulfonate] | 206 to 211 |
| CC1(C)[C@@H](CS(=O)(=O)c2ccc(S(C)(=O)=O)cc2)CC[C@@]1(C)NCC(=O)N1C[C@H](F)C[C@H]1C#N [Example 43, (2S,4R)-4-Fluoro-1-(2-((1R,3S)-1,2,2-trimethyl-3-((4-(methylsulfonyl)phenylsulfonyl)methyl)cyclopentylamino)acetyl)pyrrolidine-2-carbonitrile] | 163 to 166 |
| CN1C(=O)[C@]2(C)CC[C@](NCC(=O)N3CCC[C@H]3C#N)(C1=O)C2(C)C [Example 75, (S)-1-(2-((1R,5R)-3,5,8,8-Tetramethyl-2,4-dioxo-3-azabicyclo[3.2.1]octan-1-ylamino)acetyl)pyrrolidine-2-carbonitrile] | 141 to 144 |
| CC1(C)[C@@]2(C)CC[C@]1(NCC(=O)N1CCC[C@H]1C#N)C(=O)OC2 [Example 79, (S)-1-(2-((1R,5R)-5,8,8-Trimethyl-2-oxo-3-oxabicyclo[3.2.1]octan-1-ylamino)acetyl)pyrrolidine-2-carbonitrile] | 174 to 177 |

The remaining lines, values ahead:

| melting point [°C] | SMILES |
| --- | --- |
| 210 to 214 | CC1(C)[C@@H](Cn2cnnn2)CC[C@@]1(C)NCC(=O)N1C[C@@H](F)C[C@H]1C#N (as salt: methanesulfonate) [Example 31, (2S,4S)-1-(2-((1R,3S)-3-((1H-Tetrazol-1-yl)methyl)-1,2,2-trimethylcyclopentylamino)acetyl)-4-fluoropyrrolidine-2-carbonitrile methanesulfonate] |
| 186 to 188 | CC1(C)[C@@H](Cn2cncn2)CC[C@@]1(C)NCC(=O)N1C[C@@H](F)C[C@H]1C#N [Example 1, (2S,4S)-1-(2-((1R,3S)-3-((1H-1,2,4-Triazol-1-yl)methyl)-1,2,2-trimethylcyclopentylamino)acetyl)-4-fluoropyrrolidine-2-carbonitrile] |

— patent US8466145B2, “Dipeptidyl peptidase IV inhibitors” (Orchid Chemicals & Pharmaceuticals Limited, priority 2009, dated 2013)
